Values joined by “and” are separate entries in the source; they are usually repeats but may differ in a detail not shown here. Equal values may be shown once. Read-outs that look alike come from different tables or passages of the source.
Tests used:
Human mTOR (FLAG-TOR) = Human mTOR (FLAG-TOR) (Homo sapiens, UniProt P42345); assay: mTOR kinase assay (DELFIA format, purified enzyme); type: biochemical; conditions: read-out: IC50 mTOR
PI3K-α = PI3K-α (Homo sapiens, UniProt P42336); assay: PI3K-alpha fluorescence polarization assay; conditions: read-out: IC50 PI3Kα
Chain of PI3K-α (P42336 whole entry, species assumed): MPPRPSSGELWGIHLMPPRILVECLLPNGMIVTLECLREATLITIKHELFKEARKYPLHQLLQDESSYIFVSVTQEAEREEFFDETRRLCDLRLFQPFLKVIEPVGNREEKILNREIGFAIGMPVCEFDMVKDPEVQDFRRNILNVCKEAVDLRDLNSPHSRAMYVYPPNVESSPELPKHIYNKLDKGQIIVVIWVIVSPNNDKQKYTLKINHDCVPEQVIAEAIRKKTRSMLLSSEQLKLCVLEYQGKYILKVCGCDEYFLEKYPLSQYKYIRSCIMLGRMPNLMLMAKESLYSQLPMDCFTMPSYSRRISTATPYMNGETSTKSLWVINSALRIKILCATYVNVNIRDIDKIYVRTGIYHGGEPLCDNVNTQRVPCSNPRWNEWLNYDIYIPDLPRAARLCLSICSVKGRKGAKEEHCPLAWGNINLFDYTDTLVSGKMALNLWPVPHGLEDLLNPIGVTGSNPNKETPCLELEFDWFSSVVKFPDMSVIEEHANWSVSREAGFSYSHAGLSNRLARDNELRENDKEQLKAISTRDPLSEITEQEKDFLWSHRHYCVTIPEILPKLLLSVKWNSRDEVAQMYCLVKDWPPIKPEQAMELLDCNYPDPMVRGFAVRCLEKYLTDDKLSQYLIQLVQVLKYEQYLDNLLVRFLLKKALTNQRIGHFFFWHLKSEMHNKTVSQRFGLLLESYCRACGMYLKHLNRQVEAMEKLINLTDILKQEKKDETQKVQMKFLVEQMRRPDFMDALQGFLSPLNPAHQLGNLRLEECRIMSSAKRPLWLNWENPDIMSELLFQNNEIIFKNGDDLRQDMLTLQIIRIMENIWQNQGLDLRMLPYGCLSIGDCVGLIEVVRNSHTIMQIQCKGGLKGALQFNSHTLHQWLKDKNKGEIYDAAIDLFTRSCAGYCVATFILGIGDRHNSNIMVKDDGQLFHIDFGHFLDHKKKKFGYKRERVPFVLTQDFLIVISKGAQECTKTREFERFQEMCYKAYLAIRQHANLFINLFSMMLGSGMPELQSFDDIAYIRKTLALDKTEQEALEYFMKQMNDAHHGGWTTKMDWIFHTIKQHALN
Chain of PI3K-α (P27986 whole entry partner, species assumed): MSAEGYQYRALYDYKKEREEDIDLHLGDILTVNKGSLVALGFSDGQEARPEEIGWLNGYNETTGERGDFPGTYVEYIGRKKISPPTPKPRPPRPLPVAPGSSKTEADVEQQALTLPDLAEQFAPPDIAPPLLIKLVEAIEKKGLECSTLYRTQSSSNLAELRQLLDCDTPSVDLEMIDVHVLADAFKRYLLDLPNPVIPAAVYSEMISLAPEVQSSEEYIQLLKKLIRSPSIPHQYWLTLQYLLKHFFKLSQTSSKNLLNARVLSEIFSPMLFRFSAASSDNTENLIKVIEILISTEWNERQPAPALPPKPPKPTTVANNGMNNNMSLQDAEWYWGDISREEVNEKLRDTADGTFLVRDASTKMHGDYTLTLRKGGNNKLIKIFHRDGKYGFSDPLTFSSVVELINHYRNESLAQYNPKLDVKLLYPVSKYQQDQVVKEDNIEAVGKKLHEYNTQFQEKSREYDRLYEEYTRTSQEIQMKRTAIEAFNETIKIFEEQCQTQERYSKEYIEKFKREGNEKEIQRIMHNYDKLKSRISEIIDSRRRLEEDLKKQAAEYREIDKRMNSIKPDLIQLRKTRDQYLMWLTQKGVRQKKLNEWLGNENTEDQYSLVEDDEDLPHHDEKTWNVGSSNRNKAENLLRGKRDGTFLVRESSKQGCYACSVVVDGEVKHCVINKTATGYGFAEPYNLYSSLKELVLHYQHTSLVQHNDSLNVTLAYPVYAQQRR

PI3K-γ = PI3K-γ (Homo sapiens, UniProt P48736); assay: PI3K-gamma fluorescence polarization assay; conditions: read-out: IC50 PI3Kγ
Chain of PI3K-γ (P48736 whole entry, species assumed): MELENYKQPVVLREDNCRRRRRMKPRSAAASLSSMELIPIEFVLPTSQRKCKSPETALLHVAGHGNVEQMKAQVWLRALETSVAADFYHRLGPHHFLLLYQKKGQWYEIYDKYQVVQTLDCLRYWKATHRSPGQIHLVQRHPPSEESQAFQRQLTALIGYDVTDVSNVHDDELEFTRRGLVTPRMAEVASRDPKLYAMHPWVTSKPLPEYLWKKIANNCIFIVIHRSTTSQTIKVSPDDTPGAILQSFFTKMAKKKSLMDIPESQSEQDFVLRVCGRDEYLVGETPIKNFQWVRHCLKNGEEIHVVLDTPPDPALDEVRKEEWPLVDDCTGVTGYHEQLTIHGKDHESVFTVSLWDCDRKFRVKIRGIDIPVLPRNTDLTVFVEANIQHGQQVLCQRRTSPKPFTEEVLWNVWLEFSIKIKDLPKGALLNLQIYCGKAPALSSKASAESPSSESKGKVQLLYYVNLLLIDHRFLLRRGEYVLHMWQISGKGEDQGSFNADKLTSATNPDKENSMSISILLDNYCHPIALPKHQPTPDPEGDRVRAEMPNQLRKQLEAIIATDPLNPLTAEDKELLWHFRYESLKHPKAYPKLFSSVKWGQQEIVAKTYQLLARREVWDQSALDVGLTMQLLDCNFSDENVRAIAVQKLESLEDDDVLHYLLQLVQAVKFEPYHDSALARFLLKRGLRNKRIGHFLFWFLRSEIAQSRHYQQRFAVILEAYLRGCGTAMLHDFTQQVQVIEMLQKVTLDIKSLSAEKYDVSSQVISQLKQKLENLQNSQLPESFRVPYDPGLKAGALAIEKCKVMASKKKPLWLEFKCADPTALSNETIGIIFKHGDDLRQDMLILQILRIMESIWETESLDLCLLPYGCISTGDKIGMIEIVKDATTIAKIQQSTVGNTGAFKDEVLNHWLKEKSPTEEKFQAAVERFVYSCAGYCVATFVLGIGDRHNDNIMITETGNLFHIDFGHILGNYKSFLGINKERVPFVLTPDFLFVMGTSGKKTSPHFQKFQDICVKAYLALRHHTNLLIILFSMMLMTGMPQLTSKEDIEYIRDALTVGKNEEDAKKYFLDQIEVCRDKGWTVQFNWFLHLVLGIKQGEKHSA

[1] = system: human prostate LNCap tumor cell line; assay: In vitro cell culture growth assay (MTS), LNCap; conditions: read-out: IC50 LNCap

Chain of Human mTOR (FLAG-TOR) (P42345 1360-2549 limits assumed): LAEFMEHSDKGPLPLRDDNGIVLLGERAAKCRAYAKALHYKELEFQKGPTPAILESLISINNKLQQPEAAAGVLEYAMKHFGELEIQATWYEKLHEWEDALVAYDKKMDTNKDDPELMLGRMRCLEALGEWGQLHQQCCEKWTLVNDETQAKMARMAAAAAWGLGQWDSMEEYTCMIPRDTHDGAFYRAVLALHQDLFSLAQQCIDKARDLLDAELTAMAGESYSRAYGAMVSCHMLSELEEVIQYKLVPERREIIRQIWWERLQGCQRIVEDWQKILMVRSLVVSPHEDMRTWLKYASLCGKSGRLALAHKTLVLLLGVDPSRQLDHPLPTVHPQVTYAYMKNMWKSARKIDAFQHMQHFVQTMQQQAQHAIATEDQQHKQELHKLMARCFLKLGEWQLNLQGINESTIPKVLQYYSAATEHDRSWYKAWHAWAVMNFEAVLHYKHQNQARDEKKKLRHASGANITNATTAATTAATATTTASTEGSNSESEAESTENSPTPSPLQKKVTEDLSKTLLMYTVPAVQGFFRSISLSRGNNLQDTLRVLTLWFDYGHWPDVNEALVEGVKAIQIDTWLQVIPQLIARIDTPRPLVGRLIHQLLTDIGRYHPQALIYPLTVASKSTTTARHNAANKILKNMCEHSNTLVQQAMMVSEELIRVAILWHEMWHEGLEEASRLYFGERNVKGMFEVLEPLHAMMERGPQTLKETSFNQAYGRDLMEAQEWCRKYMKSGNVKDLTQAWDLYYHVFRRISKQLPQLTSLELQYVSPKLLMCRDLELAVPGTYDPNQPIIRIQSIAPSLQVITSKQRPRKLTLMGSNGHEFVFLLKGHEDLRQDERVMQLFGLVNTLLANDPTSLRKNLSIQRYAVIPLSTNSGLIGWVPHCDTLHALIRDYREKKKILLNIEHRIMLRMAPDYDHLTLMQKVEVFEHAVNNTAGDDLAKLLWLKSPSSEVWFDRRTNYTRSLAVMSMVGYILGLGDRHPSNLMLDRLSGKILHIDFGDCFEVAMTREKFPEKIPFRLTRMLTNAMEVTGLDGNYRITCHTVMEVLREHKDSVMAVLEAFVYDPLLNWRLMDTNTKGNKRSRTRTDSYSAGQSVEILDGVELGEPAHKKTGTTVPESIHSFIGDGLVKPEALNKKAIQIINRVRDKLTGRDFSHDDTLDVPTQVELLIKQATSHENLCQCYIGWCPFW

| Structure (SMILES) | IC50 (Human mTOR (FLAG-TOR)) | IC50 (PI3K-α) [nM] | IC50 (PI3K-γ) [nM] | IC50 ([1]; Homo sapiens, LNCaP, 72 h) [nM] | IC50 (PI3K-γ; listed as 717) [nM] | IC50 ([1]; MTS cell growth assay, three days after drug treatment) [nM] |
| --- | --- | --- | --- | --- | --- | --- |
| O=C(Nc1ccc(-c2nc(OCC3CCCNC3)nc(N3CC4CCC(C3)O4)n2)cc1)Nc1cccnc1 (stereo not shown) [Example 180, 1-{4-[4-(8-oxa-3-azabicyclo[3.2.1]oct-3-yl)-6-(piperidin-3-ylmethoxy)-1,3,5-triazin-2-yl]phenyl}-3-pyridin-3-ylurea] | 1.6 nM | 531 | 8000 | 5800 | – | – |
| NCCCCOc1nc(-c2ccc(NC(=O)Nc3cccnc3)cc2)nc(N2CC3CCC(C2)O3)n1 [Example 181, 1-{4-[4-(4-aminobutoxy)-6-(8-oxa-3-azabicyclo[3.2.1]oct-3-yl)-1,3,5-triazin-2-yl]phenyl}-3-pyridin-3-ylurea] | 11 nM | 426 | 6730 | 3400 | – | – |
| O=C(Nc1ccc(-c2nc(OCCC3CCNCC3)nc(N3CC4CCC(C3)O4)n2)cc1)Nc1cccnc1 [Example 182, 1-{4-[4-(8-oxa-3-azabicyclo[3.2.1]oct-3-yl)-6-(2-piperidin-4-ylethoxy)-1,3,5-triazin-2-yl]phenyl}-3-pyridin-3-ylurea] | 3 nM | 308 | 5000 | 3500 | – | – |
| O=C(Nc1ccc(-c2nc(OCC3CCNCC3)nc(N3CC4CCC(C3)O4)n2)cc1)Nc1cccnc1 [Example 183, 1-{4-[4-(8-oxa-3-azabicyclo[3.2.1]oct-3-yl)-6-(piperidin-4-ylmethoxy)-1,3,5-triazin-2-yl]phenyl}-3-pyridin-3-ylurea] | 14 nM | 526 | 11000 | 8500 | – | – |
| CNc1nc(-c2ccc(NC(=O)Nc3cccnc3)cc2)nc(N2CC3CCC(C2)O3)n1 [Example 190, 1-{4-[4-(methylamino)-6-(8-oxa-3-azabicyclo[3.2.1]oct-3-yl)-1,3,5-triazin-2-yl]phenyl}-3-pyridin-3-ylurea] | 6.3 nM | 780 | 1320 | 950 | – | – |
| CCNc1nc(-c2ccc(NC(=O)Nc3cccnc3)cc2)nc(N2CC3CCC(C2)O3)n1 [Example 191, 1-{4-[4-(ethylamino)-6-(8-oxa-3-azabicyclo[3.2.1]oct-3-yl)-1,3,5-triazin-2-yl]phenyl}-3-pyridin-3-ylurea] | 16 nM | 435 | 4630 | 220 | – | – |
| CN(C)c1nc(-c2ccc(NC(=O)Nc3cccnc3)cc2)nc(N2CC3CCC(C2)O3)n1 [Example 192, 1-{4-[4-(dimethylamino)-6-(8-oxa-3-azabicyclo[3.2.1]oct-3-yl)-1,3,5-triazin-2-yl]phenyl}-3-pyridin-3-ylurea] | 43 nM | 1120 | 453 | 620 | – | – |
| CC(C)Nc1nc(-c2ccc(NC(=O)Nc3cccnc3)cc2)nc(N2CC3CCC(C2)O3)n1 [Example 193, 1-{4-[4-(isopropylamino)-6-(8-oxa-3-azabicyclo[3.2.1]oct-3-yl)-1,3,5-triazin-2-yl]phenyl}-3-pyridin-3-ylurea] | 0.8 nM | 401 | 3130 | 105 | – | – |
| CNC(=O)Nc1ccc(-c2nc(NC(C)C)nc(N3CC4CCC(C3)O4)n2)cc1 [Example 212, 1-methyl-3-(4-{4-[(1-methylethyl)amino]-6-(8-oxa-3-azabicyclo[3.2.1]oct-3-yl)-1,3,5-triazin-2-yl}phenyl)urea] | 6.4 nM | 902 | 8770 | 420 | – | – |
| CC(C)Nc1nc(-c2ccc(NC(=O)Nc3ccncc3)cc2)nc(N2CC3CCC(C2)O3)n1 [Example 215, 1-(4-{4-[(1-methylethyl)amino]-6-(8-oxa-3-azabicyclo[3.2.1]oct-3-yl)-1,3,5-triazin-2-yl}phenyl)-3-pyridin-4-ylurea] | 1.2 nM | 187 | 3160 | 30 | – | – |
| CC(C)Nc1nc(-c2ccc(NC(=O)Nc3ccc(N4CCN(C)CC4)cc3)cc2)nc(N2CC3CCC(C2)O3)n1 [Example 217, 1-(4-{4-[(1-methylethyl)amino]-6-(8-oxa-3-azabicyclo[3.2.1]oct-3-yl)-1,3,5-triazin-2-yl}phenyl)-3-[4-(4-methylpiperazin-1-yl)phenyl]urea] | 3.2 nM | 253 | 3230 | 13 | – | – |
| CC(C)Nc1nc(-c2ccc(NC(=O)Nc3ccc(C(=O)NN(C)C)cc3)cc2)nc(N2CC3CCC(C2)O3)n1 [Example 218, 1-{4-[(2,2-dimethylhydrazino)carbonyl]phenyl}-3-(4-{4-[(1-methylethyl)amino]-6-(8-oxa-3-azabicyclo[3.2.1]oct-3-yl)-1,3,5-triazin-2-yl}phenyl)urea] | 2.6 nM | 279 | 2780 | 12 | – | – |
| CC(C)Nc1nc(-c2ccc(NC(=O)Nc3ccc(C(=O)NN4CCCC4)cc3)cc2)nc(N2CC3CCC(C2)O3)n1 [Example 219, 4-{[(4-{4-[(1-methylethyl)amino]-6-(8-oxa-3-azabicyclo[3.2.1]oct-3-yl)-1,3,5-triazin-2-yl}phenyl)carbamoyl]amino}-N-pyrrolidin-1-ylbenzamide] | 5.9 nM | 561 | 8280 | 40 | – | – |
| CC(C)Nc1nc(-c2ccc(NC(=O)Nc3ccc(OCCN(C)C)cc3)cc2)nc(N2CC3CCC(C2)O3)n1 [Example 220, 1-{4-[2-(dimethylamino)ethoxy]phenyl}-3-(4-{4-[(1-methylethyl)amino]-6-(8-oxa-3-azabicyclo[3.2.1]oct-3-yl)-1,3,5-triazin-2-yl}phenyl)urea] | 3.5 nM | 275 | 2830 | 40 | – | – |
| CC(C)Nc1nc(-c2ccc(NC(=O)Nc3ccc(CO)cc3)cc2)nc(N2CC3CCC(C2)O3)n1 [Example 221, 1-[4-(hydroxymethyl)phenyl]-3-(4-{4-[(1-methylethyl)amino]-6-(8-oxa-3-azabicyclo[3.2.1]oct-3-yl)-1,3,5-triazin-2-yl}phenyl)urea] | 2.7 nM | 214 | 4280 | 120 | – | – |
| CC(C)Nc1nc(-c2ccc(NC(=O)Nc3ccc(CCO)cc3)cc2)nc(N2CC3CCC(C2)O3)n1 [Example 222, 1-[4-(2-hydroxyethyl)phenyl]-3-(4-{4-[(1-methylethyl)amino]-6-(8-oxa-3-azabicyclo[3.2.1]oct-3-yl)-1,3,5-triazin-2-yl}phenyl)urea] | 0.5 nM | 152 | 572 | 10 | – | – |
| O=C(Nc1ccncc1)Nc1ccc(-c2nc(N3C4CCC3COC4)nc(N3C4CCC3COC4)n2)cc1 [Example 224, 1-[4-(4,6-di-3-oxa-8-azabicyclo[3.2.1]oct-8-yl-1,3,5-triazin-2-yl)phenyl]-3-pyridin-4-ylurea] | 0.4 nM and 0.395 nM | 444 | 5870 | < 0.8 | 5870 | – |
| COCCNc1nc(-c2ccc(NC(=O)Nc3cccnc3)cc2)nc(N2CC3CCC(C2)O3)n1 [Example 258, 1-(4-{4-[(2-methoxyethyl)amino]-6-(8-oxa-3-azabicyclo[3.2.1]oct-3-yl)-1,3,5-triazin-2-yl}phenyl)-3-pyridin-3-ylurea] | 2.3 nM | 403 | 6170 | 60 | – | – |
| C[C@@H](CO)Nc1nc(-c2ccc(NC(=O)Nc3cccnc3)cc2)nc(N2CC3CCC(C2)O3)n1 [Example 259, 1-{4-[4-{[(1S)-2-hydroxy-1-methylethyl]amino}-6-(8-oxa-3-azabicyclo[3.2.1]oct-3-yl)-1,3,5-triazin-2-yl]phenyl}-3-pyridin-3-ylurea] | 2.4 nM | 408 | 5410 | 580 | – | – |
| C[C@H](CO)Nc1nc(-c2ccc(NC(=O)Nc3cccnc3)cc2)nc(N2CC3CCC(C2)O3)n1 [Example 260, 1-{4-[4-{[(1R)-2-hydroxy-1-methylethyl]amino}-6-(8-oxa-3-azabicyclo[3.2.1]oct-3-yl)-1,3,5-triazin-2-yl]phenyl}-3-pyridin-3-ylurea] | 0.9 nM | 417 | 4730 | 380 | – | – |
| CC(C)(CO)Nc1nc(-c2ccc(NC(=O)Nc3cccnc3)cc2)nc(N2CC3CCC(C2)O3)n1 [Example 261, 1-(4-{4-[(2-hydroxy-1,1-dimethylethyl)amino]-6-(8-oxa-3-azabicyclo[3.2.1]oct-3-yl)-1,3,5-triazin-2-yl}phenyl)-3-pyridin-3-ylurea] | 0.31 nM | 158 | 2530 | 30 | – | – |
| CC(C)(C)Nc1nc(-c2ccc(NC(=O)Nc3cccnc3)cc2)nc(N2CC3CCC(C2)O3)n1 [Example 262, 1-{4-[4-(tert-butylamino)-6-(8-oxa-3-azabicyclo[3.2.1]oct-3-yl)-1,3,5-triazin-2-yl]phenyl}-3-pyridin-3-ylurea] | 0.29 nM | 105 | 954 | 22 | – | – |
| O=C(Nc1ccc(-c2nc(N3C[C@@H]4C[C@H]3CO4)nc(N3C[C@@H]4C[C@H]3CO4)n2)cc1)Nc1ccc(N2CCNCC2)cc1 [Example 313, 1-{4-[4,6-di-(1S,4S)-2-oxa-5-azabicyclo[2.2.1]hept-5-yl-1,3,5-triazin-2-yl]phenyl}-3-(4-piperazin-1-ylphenyl)urea] | 37 nM | 1730 | 7490 | – | – | 100 |
| CN1CCN(c2ccc(Nc3nc(-c4ccc(NC(=O)NCCF)cc4)nc(N4CC5CCC(C4)O5)n3)cc2)CC1 [Example 315, 1-(2-fluoroethyl)-3-{4-[4-{[4-(4-methylpiperazin-1-yl)phenyl]amino}-6-(8-oxa-3-azabicyclo[3.2.1]oct-3-yl)-1,3,5-triazin-2-yl]phenyl}urea] | 5 nM and 5.8 nM | 1100 | 7900 | 300 | – | – |
